Reference: patent publication US6737383B1, “Herbicidal oxadiazolidines” (priority 1999, dated 2004)

Columns and labels:
purple nutsedge = assay: Test B pre/postemergence purple nutsedge; type: in vivo, Cyperus rotundus
Procedure, shortened: (§1)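 Herbicidal effect was estimated by eye on a ten-point control scale after plants spent twelve to sixteen days in a greenhouse following soil or foliar treatment. Foliar sprays targeted plants at one to four leaves; all doses were formulated in a non-phytotoxic solvent with surfactant.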

smallflower flatsedge = assay: Test B flood test smallflower flatsedge; type: in vivo, Cyperus difformis
Procedure, shortened: (§2)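 Plants were grown to the 2-leaf stage before treatment with test chemical, then held in a greenhouse for twelve to sixteen days. Injury was visually rated against untreated controls on a 0–10 scale, where 0 is no effect and 10 is complete control.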

duck salad = assay: Test B flood test duck salad; type: in vivo, Heteranthera limosa
Procedure, shortened: as §2

crabgrass = assay: Test B pre/postemergence crabgrass; type: in vivo, Digitaria sanguinalis
Procedure, shortened: as §1

cocklebur = assay: Test B pre/postemergence cocklebur; type: in vivo, Xanthium strumarium
Procedure, shortened: as §1

rape = assay: Test B pre/postemergence rape; type: in vivo, Brassica napus
Procedure, shortened: as §1

velvetleaf = assay: Test B pre/postemergence velvetleaf; type: in vivo, Abutilon theophrasti
Procedure, shortened: as §1

morningglory = assay: Test B pre/postemergence morningglory; type: in vivo, Ipomoea hederacea
Procedure, shortened: as §1

wild oat = assay: Test B pre/postemergence wild oat; type: in vivo, Avena fatua
Procedure, shortened: as §1

corn = assay: Test B pre/postemergence corn; type: in vivo, Zea mays
Procedure, shortened: as §1

wheat = assay: Test B pre/postemergence wheat; type: in vivo, Triticum aestivum
Procedure, shortened: as §1

soybean = assay: Test B pre/postemergence soybean; type: in vivo, Glycine max
Procedure, shortened: as §1

giant foxtail = assay: Test B pre/postemergence giant foxtail; type: in vivo, Setaria faberii
Procedure, shortened: as §1

rice = assay: Test B flood test rice; type: in vivo, Oryza sativa
Procedure, shortened: as §2

pigweed = assay: Test B pre/postemergence pigweed; type: in vivo, Amaranthus retroflexus
Procedure, shortened: as §1

[1] = Postemergence, Rate 62 g/ha, scale 0 to 10, 0 is no effect, 10 is complete control
[2] = Postemergence, Rate 125 g/ha, scale of 0 to 10 where 0 is no effect and 10 is complete control
[3] = Postemergence, Rate 250 g/ha, scale of 0 to 10, 0 is no effect, 10 is complete control
[4] = Postemergence, Rate 500 g/ha, scale of 0 to 10 where 0 is no effect and 10 is complete control
[5] = Preemergence, Rate 62 g/ha, scale of 0 to 10 where 0 is no effect and 10 is complete control
[6] = Preemergence, Rate 125 g/ha, scale of 0 to 10 where 0 is no effect and 10 is complete control
[7] = Preemergence, Rate 250 g/ha, scale 0 to 10 (0 no effect, 10 complete control)
[8] = Preemergence, Rate 500 g/ha, scale of 0 to 10 where 0 is no effect and 10 is complete control
[9] = Rate 62 g/ha, flood test species, Pre-emergence, visual evaluation after twelve to sixteen days
[10] = Rate 125 g/ha, under heading Pre-emergence, flood test species, visual evaluation after twelve to sixteen days
[11] = Rate 250 g/ha, Pre-emergence (flood test species), scale 0 to 10, 0 is no effect, 10 is complete control
[12] = Rate 500 g/ha, Pre-emergence section of Table B, 0 to 10 scale (0 no effect, 10 complete control)

CC(C)N(C(=O)n1oc(=O)n(CC(=O)C2CCC2)c1=O)c1ccc(F)cc1F [Compound 642]
Plant response rating, Nutsedge (purple nutsedge; [1]): 0
Nutsedge plant response rating (purple nutsedge; [2]): 0
Nutsedge plant response rating (purple nutsedge; [3]): 0
Plant response rating, Nutsedge (purple nutsedge; [4]): 0
Nutsedge plant response rating (purple nutsedge; [5]): 0
Nutsedge plant response rating (purple nutsedge; [6]): 0
Plant response rating, Nutsedge (purple nutsedge; [7]): 0
Plant response rating, Nutsedge (purple nutsedge; [8]): 0
Plant response rating, S. Flatsedge (0 to 10 scale, 0 is no effect, 10 is complete control) (smallflower flatsedge; [9]): 0
S. Flatsedge plant response rating (0 to 10 scale, 0 is no effect, 10 is complete control) (smallflower flatsedge; [10]): 0
S. Flatsedge plant response rating (smallflower flatsedge; [11]): 0
S. Flatsedge plant response rating (smallflower flatsedge; [12]): 0
Plant response rating, Ducksalad (0 to 10 scale, 0 is no effect, 10 is complete control) (duck salad; [9]): 0
Ducksalad plant response rating (0 to 10 scale, 0 is no effect, 10 is complete control) (duck salad; [10]): 0
Ducksalad plant response rating (duck salad; [11]): 0
Ducksalad plant response rating (duck salad; [12]): 0
Plant response rating, Crabgrass (crabgrass; [1]): 0
Crabgrass plant response rating (crabgrass; [2]): 0
Crabgrass plant response rating (crabgrass; [3]): 0
Plant response rating, Crabgrass (crabgrass; [4]): 5
Crabgrass plant response rating (crabgrass; [5]): 6
Crabgrass plant response rating (crabgrass; [6]): 8
Plant response rating, Crabgrass (crabgrass; [7]): 10
Plant response rating, Crabgrass (crabgrass; [8]): 10
Plant response rating, Cocklebur (cocklebur; [1]): 0
Cocklebur plant response rating (cocklebur; [2]): 0
Cocklebur plant response rating (cocklebur; [3]): 0
Plant response rating, Cocklebur (cocklebur; [4]): 0
Cocklebur plant response rating (cocklebur; [5]): 0
Cocklebur plant response rating (cocklebur; [6]): 0
Plant response rating, Cocklebur (cocklebur; [7]): 0
Plant response rating, Cocklebur (cocklebur; [8]): 0
Plant response rating, Rape (rape; [1]): 0
Rape plant response rating (rape; [2]): 0
Rape plant response rating (rape; [3]): 0
Plant response rating, Rape (rape; [4]): 0
Rape plant response rating (rape; [5]): 0
Rape plant response rating (rape; [6]): 2
Plant response rating, Rape (rape; [7]): 4
Plant response rating, Rape (rape; [8]): 9
Plant response rating, Velvetleaf (velvetleaf; [1]): 0
Velvetleaf plant response rating (velvetleaf; [2]): 0
Velvetleaf plant response rating (velvetleaf; [3]): 3
Velvetleaf plant response rating (velvetleaf; [5]): 0
Velvetleaf plant response rating (velvetleaf; [6]): 0
Plant response rating, Velvetleaf (velvetleaf; [7]): 0
Plant response rating, Velvetleaf (velvetleaf; [8]): 3
Plant response rating, Morningglory (morningglory; [1]): 0
Morningglory plant response rating (morningglory; [2]): 0
Morningglory plant response rating (morningglory; [3]): 0
Plant response rating, Morningglory (morningglory; [4]): 3
Morningglory plant response rating (morningglory; [5]): 0
Morningglory plant response rating (morningglory; [6]): 0
Plant response rating, Morningglory (morningglory; [7]): 0
Plant response rating, Morningglory (morningglory; [8]): 0
Plant response rating, Wild oats (wild oat; [1]): 1
Wild oats plant response rating (wild oat; [2]): 1
Wild oats plant response rating (wild oat; [3]): 1
Wild oats plant response rating (wild oat; [5]): 0
Wild oats plant response rating (wild oat; [6]): 0
Plant response rating, Wild oats (wild oat; [7]): 2
Plant response rating, Wild oats (wild oat; [8]): 4
Plant response rating, Corn (corn; [1]): 0
Corn plant response rating (corn; [2]): 0
Corn plant response rating (corn; [3]): 0
Plant response rating, Corn (corn; [4]): 0
Corn plant response rating (corn; [5]): 0
Corn plant response rating (corn; [6]): 0
Plant response rating, Corn (corn; [7]): 0
Plant response rating, Corn (corn; [8]): 0
Plant response rating, Wheat (wheat; [1]): 0
Wheat plant response rating (wheat; [2]): 0
Wheat plant response rating (wheat; [3]): 0
Wheat plant response rating (wheat; [5]): 0
Wheat plant response rating (wheat; [6]): 0
Plant response rating, Wheat (wheat; [7]): 0
Plant response rating, Wheat (wheat; [8]): 0
Plant response rating, Soybean (soybean; [1]): 2
Soybean plant response rating (soybean; [2]): 2
Soybean plant response rating (soybean; [3]): 2
Soybean plant response rating (soybean; [5]): 0
Soybean plant response rating (soybean; [6]): 0
Plant response rating, Soybean (soybean; [7]): 0
Plant response rating, Soybean (soybean; [8]): 0
Plant response rating, Giant foxtail (giant foxtail; [1]): 0
Giant foxtail plant response rating (giant foxtail; [2]): 0
Giant foxtail plant response rating (giant foxtail; [3]): 4
Plant response rating, Giant foxtail (giant foxtail; [4]): 7
Giant foxtail plant response rating (giant foxtail; [5]): 8
Giant foxtail plant response rating (giant foxtail; [6]): 10
Plant response rating, Giant foxtail (giant foxtail; [7]): 10
Plant response rating, Giant foxtail (giant foxtail; [8]): 10
Plant response rating, Rice (0 to 10 scale, 0 is no effect, 10 is complete control) (rice; [9]): 0
Rice plant response rating (0 to 10 scale, 0 is no effect, 10 is complete control) (rice; [10]): 0
Rice plant response rating (rice; [11]): 0
Rice plant response rating (rice; [12]): 0
Plant response rating, Redroot pigweed (pigweed; [1]): 0
Redroot pigweed plant response rating (pigweed; [2]): 0
Redroot pigweed plant response rating (pigweed; [3]): 0
Redroot pigweed plant response rating (pigweed; [5]): 0
Redroot pigweed plant response rating (pigweed; [6]): 0
Plant response rating, Redroot pigweed (pigweed; [7]): 2
Plant response rating, Redroot pigweed (pigweed; [8]): 8
